Measurements published in the supplement of paper PMC11208160.

test: recombinant barcode read abundance after kanamycin selection (control-corrected) (log10(CPM+1)); higher = more efficient recombination; sequences stand for … in AGTGCAGAGAAAATCGGCCAGTTTTCTCTGCCTGCAGTCCGCATGCCGT…ATTTATGCAGCGGACTGCCTTTCTCCCAAAGTGATAAACCGGACAGTATCATGGACCGGTTTTCCCGGTAATCCGTATTTGCAAGGTTGGTTTCACT; site = the 11-nt target
Description: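 Same pooled E. coli target screen (IS621 bridge recombinase, kanamycin selection, control-corrected CPM, mean of 2 biological replicates). Here the two core-binding nucleotides of the LTG and RTG of the bridge RNA target-binding loop are mutated. Target and donor CT cores are held constant, and the other 9 guide positions match the target. The target is read from the library oligo sequence. Molecule = full bridge RNA written as DNA: nt 1-80 from the library oligo, rest WT scaffold.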

Sequence	recombinant barcode read abundance (log10)
CGAGCCCTCTGGGTTCTAACCTGTTGCTGAG [CGAGCCCCTCA_LTGcore_TC_RTGcore_CT] (site CGAGCCCCTCA) (LTG core: TC, RTG core: CT)	0.0668
GAGTCCTCTTGGGTTCTAACCTGTTGCCTAC [GAGTCCTCTAG_LTGcore_CT_RTGcore_GT] (site GAGTCCTCTAG) (LTG core: CT, RTG core: GT)	1.02
GTCGCCCTGTGGGTTCTAACCTGTTGCTACA [GTCGCCCCTTA_LTGcore_TG_RTGcore_TG] (site GTCGCCCCTTA) (LTG core: TG, RTG core: TG)	0.51
CATATTAGTTGGGTTCTAACCTGTTGCCTAC [CATATTACTAG_LTGcore_GT_RTGcore_GT] (site CATATTACTAG) (LTG core: GT, RTG core: GT)	0.1
CATATTAGTTGGGTTCTAACCTGTTGCCTAG [CATATTACTAG_LTGcore_GT_RTGcore_CT] (site CATATTACTAG) (LTG core: GT, RTG core: CT)	0.209
AAACACACATGGGTTCTAACCTGTTGCCTAG [AAACACACTAG_LTGcore_CA_RTGcore_CT] (site AAACACACTAG) (LTG core: CA, RTG core: CT)	0.327
AAACAGTCTTGGGTTCTAACCTGTTGCCTCT [AAACAGTCTAG_LTGcore_CT_RTGcore_AG] (site AAACAGTCTAG) (LTG core: CT, RTG core: AG)	1.72
TTATAAAGATGGGTTCTAACCTGTTGCCTTC [TTATAAACTAG_LTGcore_GA_RTGcore_GA] (site TTATAAACTAG) (LTG core: GA, RTG core: GA)	0.0936
GAGTCCTTTTGGGTTCTAACCTGTTGCCTAG [GAGTCCTCTAG_LTGcore_TT_RTGcore_CT] (site GAGTCCTCTAG) (LTG core: TT, RTG core: CT)	0.153
CGAGCCCGTTGGGTTCTAACCTGTTGCTGAC [CGAGCCCCTCA_LTGcore_GT_RTGcore_GT] (site CGAGCCCCTCA) (LTG core: GT, RTG core: GT)	0.156
CGGTCCCGGTGGGTTCTAACCTGTTGCCAAG [CGGTCCCCTTG_LTGcore_GG_RTGcore_CT] (site CGGTCCCCTTG) (LTG core: GG, RTG core: CT)	0.0912
TAAGAATCTTGGGTTCTAACCTGTTGCCTGC [TAAGAATCTAG_LTGcore_CT_RTGcore_GC] (site TAAGAATCTAG) (LTG core: CT, RTG core: GC)	0.359
GGCTCCCCTTGGGTTCTAACCTGTTGCGGAG [GGCTCCCCTCC_LTGcore_CT_RTGcore_CT] (site GGCTCCCCTCC) (LTG core: CT, RTG core: CT)	0.248
AGGCGGTTATGGGTTCTAACCTGTTGCTTTA [AGGCGGTCTAA_LTGcore_TA_RTGcore_TA] (site AGGCGGTCTAA) (LTG core: TA, RTG core: TA)	0.025
AGGCGGTTTTGGGTTCTAACCTGTTGCTTAG [AGGCGGTCTAA_LTGcore_TT_RTGcore_CT] (site AGGCGGTCTAA) (LTG core: TT, RTG core: CT)	0.104
CGGTCCCGATGGGTTCTAACCTGTTGCCATC [CGGTCCCCTTG_LTGcore_GA_RTGcore_GA] (site CGGTCCCCTTG) (LTG core: GA, RTG core: GA)	0.3
ATGTCCCTCTGGGTTCTAACCTGTTGCTCGA [ATGTCCCCTGA_LTGcore_TC_RTGcore_TC] (site ATGTCCCCTGA) (LTG core: TC, RTG core: TC)	0.122
GAGGCCTACTGGGTTCTAACCTGTTGCCAGT [GAGGCCTCTTG_LTGcore_AC_RTGcore_AC] (site GAGGCCTCTTG) (LTG core: AC, RTG core: AC)	0.0631
AGGCGGGCTTGGGTTCTAACCTGTTGCGGAA [AGGCGGGCTCC_LTGcore_CT_RTGcore_TT] (site AGGCGGGCTCC) (LTG core: CT, RTG core: TT)	0.532
AAACATGATTGGGTTCTAACCTGTTGCCTAG [AAACATGCTAG_LTGcore_AT_RTGcore_CT] (site AAACATGCTAG) (LTG core: AT, RTG core: CT)	0.372
GGGCGGAGCTGGGTTCTAACCTGTTGCGGGC [GGGCGGACTCC_LTGcore_GC_RTGcore_GC] (site GGGCGGACTCC) (LTG core: GC, RTG core: GC)	0.417
GCGCGACCTTGGGTTCTAACCTGTTGCTTCC [GCGCGACCTAA_LTGcore_CT_RTGcore_GG] (site GCGCGACCTAA) (LTG core: CT, RTG core: GG)	0.0108

Sequence	recombinant barcode read abundance (log10)
ACGGGACCTTGGGTTCTAACCTGTTGCAGAG [ACGGGACCTCT_LTGcore_CT_RTGcore_CT] (site ACGGGACCTCT) (LTG core: CT, RTG core: CT)	2.63
GGCTCCCCGTGGGTTCTAACCTGTTGCGGCG [GGCTCCCCTCC_LTGcore_CG_RTGcore_CG] (site GGCTCCCCTCC) (LTG core: CG, RTG core: CG)	0.0989
AGTCTTACCTGGGTTCTAACCTGTTGCCAAG [AGTCTTACTTG_LTGcore_CC_RTGcore_CT] (site AGTCTTACTTG) (LTG core: CC, RTG core: CT)	0.0498
CATATTATCTGGGTTCTAACCTGTTGCCTGA [CATATTACTAG_LTGcore_TC_RTGcore_TC] (site CATATTACTAG) (LTG core: TC, RTG core: TC)	0.0468
GAGCCCACTTGGGTTCTAACCTGTTGCCTTG [GAGCCCACTAG_LTGcore_CT_RTGcore_CA] (site GAGCCCACTAG) (LTG core: CT, RTG core: CA)	0.835
GAGTCCACTTGGGTTCTAACCTGTTGCGTTA [GAGTCCACTAC_LTGcore_CT_RTGcore_TA] (site GAGTCCACTAC) (LTG core: CT, RTG core: TA)	0.102
GGACACCCGTGGGTTCTAACCTGTTGCCTAG [GGACACCCTAG_LTGcore_CG_RTGcore_CT] (site GGACACCCTAG) (LTG core: CG, RTG core: CT)	1.2
TAGAGGGGATGGGTTCTAACCTGTTGCGGTC [TAGAGGGCTCC_LTGcore_GA_RTGcore_GA] (site TAGAGGGCTCC) (LTG core: GA, RTG core: GA)	0.0627
TCGCGACCTTGGGTTCTAACCTGTTGCCGAG [TCGCGACCTCG_LTGcore_CT_RTGcore_CT] (site TCGCGACCTCG) (LTG core: CT, RTG core: CT)	1.15
GCGCGACTATGGGTTCTAACCTGTTGCTTAG [GCGCGACCTAA_LTGcore_TA_RTGcore_CT] (site GCGCGACCTAA) (LTG core: TA, RTG core: CT)	0.038
AGGCCTCACTGGGTTCTAACCTGTTGCCTAG [AGGCCTCCTAG_LTGcore_AC_RTGcore_CT] (site AGGCCTCCTAG) (LTG core: AC, RTG core: CT)	0.134
GAGCCCAGGTGGGTTCTAACCTGTTGCCTCC [GAGCCCACTAG_LTGcore_GG_RTGcore_GG] (site GAGCCCACTAG) (LTG core: GG, RTG core: GG)	0.596
CGGTCCCCGTGGGTTCTAACCTGTTGCCAAG [CGGTCCCCTTG_LTGcore_CG_RTGcore_CT] (site CGGTCCCCTTG) (LTG core: CG, RTG core: CT)	0.38
GAGCCCACTTGGGTTCTAACCTGTTGCCTCT [GAGCCCACTAG_LTGcore_CT_RTGcore_AG] (site GAGCCCACTAG) (LTG core: CT, RTG core: AG)	0
GAGTCCAACTGGGTTCTAACCTGTTGCGTAG [GAGTCCACTAC_LTGcore_AC_RTGcore_CT] (site GAGTCCACTAC) (LTG core: AC, RTG core: CT)	0.282
GGGAGCCCTTGGGTTCTAACCTGTTGCTGTT [GGGAGCCCTCA_LTGcore_CT_RTGcore_AA] (site GGGAGCCCTCA) (LTG core: CT, RTG core: AA)	0.272
TCTACCCTTTGGGTTCTAACCTGTTGCTGAA [TCTACCCCTCA_LTGcore_TT_RTGcore_TT] (site TCTACCCCTCA) (LTG core: TT, RTG core: TT)	0.0207
AGGCGGTATTGGGTTCTAACCTGTTGCTTAT [AGGCGGTCTAA_LTGcore_AT_RTGcore_AT] (site AGGCGGTCTAA) (LTG core: AT, RTG core: AT)	0.109
TAGAGGGCTTGGGTTCTAACCTGTTGCGGGC [TAGAGGGCTCC_LTGcore_CT_RTGcore_GC] (site TAGAGGGCTCC) (LTG core: CT, RTG core: GC)	1.36
AAACACAGTTGGGTTCTAACCTGTTGCCTAG [AAACACACTAG_LTGcore_GT_RTGcore_CT] (site AAACACACTAG) (LTG core: GT, RTG core: CT)	0.804
CATATTATGTGGGTTCTAACCTGTTGCCTCA [CATATTACTAG_LTGcore_TG_RTGcore_TG] (site CATATTACTAG) (LTG core: TG, RTG core: TG)	0.0228
TGATACCCGTGGGTTCTAACCTGTTGCGTCG [TGATACCCTAC_LTGcore_CG_RTGcore_CG] (site TGATACCCTAC) (LTG core: CG, RTG core: CG)	0.0552
